Format in all cases: ADME, organism-based
What all share (design): dose 5 mg/kg, route intravenous

For series [1], the system named is Brain. Nature of the series: Drug level in mouse brain homogenate assessed as compound recovery after 4 hr post dose measured on basis of intraday target compound concentration of 375 ng/g of brain tissue at 5 mg/kg, iv bolus dose by HPLC. The conditions noted are these: in vivo.
The test system of series [2] is Brain. Nature of the series: Drug level in mouse brain homogenate assessed as compound recovery after 4 hr post dose measured on basis of intraday target compound concentration of 3000 ng/g of brain tissue at 5 mg/kg, iv bolus dose by HPLC. The conditions noted are these: in vivo.
The nature of series [3]: Ratio of drug level in brain to plasma in Swiss mouse at 5 mg/kg, iv.
Series [4] concerns Brain. Nature of the series: Drug level in mouse brain homogenate assessed as compound recovery after 4 hr post dose measured on basis of intraday target compound concentration of 93.8 ng/g of brain tissue at 5 mg/kg, iv bolus dose by HPLC. Conditions: in vivo.

COLISTIN: the values for the Activity in series [1], in series [2] and in series [4] were 86%, 96% and 87%, respectively. In addition, in series [3], the Ratio was found to be 0.02.

These data come from ChEMBL document CHEMBL1649240, “Brain penetration of colistin in mice assessed by a novel high-performance liquid chromatographic technique” (Antimicrob Agents Chemother, 2009).
